From paper PMC4527730, “A Pan-GTPase Inhibitor as a Molecular Probe” (PLoS ONE, 2015)
≈ marks a conversion by molar mass, not a printed value. Read-outs that look alike come from different tables or passages of the source.

Tests used:
Rac1 = Rac1 (Homo sapiens, UniProt P63000); assay: Multiplex bead-based flow cytometry dose-response of fluorescent guanine nucleotide binding; conditions: read-out: EC50 Rac1; BODIPY-FL GTP binding; 2 h at 4°C; 1 mM MgCl2
Rab7 = Rab7 (Canis lupus familiaris, UniProt P18067); assay: as above; conditions: read-out: EC50 Rab7; BODIPY-FL GTP binding; 2 h at 4°C
Experimental: (§1) Briefly, individual GST-GTPases were separately attached to glutathione microsphere beads that were labeled with varying intensity of red fluorescent dye, and subsequently combined. The buffer contains 30 mM HEPES (pH 7.2), 150 mM KCl, 20 mM NaCl, 0.1% BSA, 1 mM DTT, 1 mM EDTA and 0.1% NP-40. […] To study whether the compounds are slow binders, BODIPY^- FL GTP was added either immediately or 2 h after compound addition. […] The curves were fitted to the sigmoidal dose-response equation using GraphPad Prism. Percent response was calculated as the ratio of (sample MCF–negative control MCF) / (positive control MCF–negative control MCF).

[1] = Solubility in PBS and assay media; assay type: physicochemical
Experimental: page 7: conclusion, the available data support the idea that compound CID1067700 has non-classical competitive character. […] Solubility was measured in phosphate buffered saline (PBS) at room temperature (23 °C). PBS by definition is 137 mM NaCl, 2.7 mM KCl, 10 mM sodium phosphate dibasic, 2 mM potassium phosphate [monobasic and a pH of 7.4. Detection was based on UV absorbance. […] Solubility was also assessed in the each of the four media used in the individual assays. […] Table 1S. […] Stability, depicted as closed circles in the graph, was assessed at room temperature (23 °C) in PBS (no antioxidants or other protectants and DMSO concentration below 0.1%). Stability data is depicted in Fig. S8 showing the loss of compound with time over a 48 h period with a minimum of 6 time points and providing the percent remaining compound at end of the 48 h period. Under these conditions, 77% of 1 remains after 48 hours. The degradation has not been further characterized.

H-Ras = H-Ras (Homo sapiens, UniProt P01112); assay: Multiplex bead-based flow cytometry dose-response of fluorescent guanine nucleotide binding; conditions: read-out: EC50 H-Ras; BODIPY-FL GTP binding; 2 h at 4°C
Rac1 Q61L = Rac1 Q61L (Homo sapiens, UniProt P63000, Q61L); assay: as above; conditions: read-out: EC50 Rac1 Q61L; BODIPY-FL GTP binding; 2 h at 4°C
Cdc42 = Cdc42 (Homo sapiens, UniProt P60953); assay: as above; conditions: read-out: EC50 Cdc42; BODIPY-FL GTP binding; 2 h at 4°C
Experimental: as §1

Cdc42 Q61L = Cdc42 Q61L (Homo sapiens, UniProt P60953, Q61L); assay: as above; conditions: read-out: EC50 Cdc42 Q61L; BODIPY-FL GTP binding; 2 h at 4°C
Experimental: as §1

H-Ras G12V = H-Ras G12V (Homo sapiens, UniProt P01112, G12V); assay: as above; conditions: read-out: EC50 H-Ras G12V; BODIPY-FL GTP binding; 2 h at 4°C
RhoA = RhoA (Homo sapiens, UniProt P61586); assay: as above; conditions: read-out: EC50 RhoA; BODIPY-FL GTP binding; 2 h at 4°C; 1 mM MgCl2
Experimental: (§2) Briefly, individual GST-GTPases were separately attached to glutathione microsphere beads that were labeled with varying intensity of red fluorescent dye, and subsequently combined. The buffer contains 30 mM HEPES (pH 7.2), 150 mM KCl, 20 mM NaCl, 0.1% BSA, 1 mM DTT, 1 mM EDTA and 0.1% NP-40. For Rho A and Rac1, 1 mM EDTA was replaced with 1 mM MgCl2 to stabilize the protein. […] To study whether the compounds are slow binders, BODIPY^- FL GTP was added either immediately or 2 h after compound addition. […] The curves were fitted to the sigmoidal dose-response equation using GraphPad Prism. Percent response was calculated as the ratio of (sample MCF–negative control MCF) / (positive control MCF–negative control MCF).

[2] = test system: GTPases (H-Ras, H-Ras G12V, Cdc42, Cdc42 Q61L, Rac1, Rac1 Q61L, RhoA, Rab7); assay: Multiplex dose-response assay, statements across the GTPase panel; conditions: for inhibitory activity on BODIPY-FL GTP binding across all GTPases tested (in words): SAR versus compound 1
Experimental: as §2

[3] = test system: integrin VLA-4 on U937 FPRΔST cells; parameters: method as in PMID 23382385; conditions: cited from earlier work
[4] = test system: integrin VLA-4 on U937 FPRΔST cells; assay: Integrin activation assay (LDV-FITC binding); assay type: cell-based; conditions: LDV-FITC 4 nM, fMLFF 100 nM
Experimental: The procedure followed the protocols described previously. U937 FPRΔST cells (0.4~0.8 x 10^6 cells/mL) were continuously stirred with a magnetic stir bar at 500 rpm in a test tube. The fluorescence was recorded on a FACScan flow cytometer. The baseline fluorescence of the cells was established for 30 s. Then LDV-FITC at 4 nM was added. After the fluorescence stabilized at ~120 s, the chemotactic ligand fMLFF at 100 nM was added for stimulation. […] All the concentrations given were the final concentrations. The percent inhibition was calculated according to Equation 1 (Supporting Information).

[5] = 30mM HEPES, pH 7.5, 100mM KCl, 20mM NaCl, 0.01% (v/v) NP-40
[6] = 30mM HEPES, pH 7.5, 100mM KCl, 20mM NaCl, 0.01% (v/v) NP-40, read-out: Solubility, Dose Response-buffer
[7] = DMEM/F-12, read-out: Solubility, EGFR degradation assay medium
[8] = RPMI 1640 + 10% HI-FBS, read-out: Solubility, LDV-FITC assay buffer

Cdc42, sequence (P60953 whole entry): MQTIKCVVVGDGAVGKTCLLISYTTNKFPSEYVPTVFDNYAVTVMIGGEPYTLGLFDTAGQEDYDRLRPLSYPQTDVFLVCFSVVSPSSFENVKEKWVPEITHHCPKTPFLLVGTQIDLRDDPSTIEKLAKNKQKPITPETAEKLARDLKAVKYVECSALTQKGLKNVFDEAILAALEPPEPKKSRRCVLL
Cdc42 Q61L, sequence (P60953 whole entry Q61L): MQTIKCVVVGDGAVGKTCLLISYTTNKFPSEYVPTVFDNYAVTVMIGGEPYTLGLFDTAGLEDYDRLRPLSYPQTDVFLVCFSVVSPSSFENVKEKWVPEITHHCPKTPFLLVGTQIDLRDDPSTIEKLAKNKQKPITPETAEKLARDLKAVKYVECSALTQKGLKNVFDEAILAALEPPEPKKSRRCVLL
H-Ras, sequence (P01112 whole entry): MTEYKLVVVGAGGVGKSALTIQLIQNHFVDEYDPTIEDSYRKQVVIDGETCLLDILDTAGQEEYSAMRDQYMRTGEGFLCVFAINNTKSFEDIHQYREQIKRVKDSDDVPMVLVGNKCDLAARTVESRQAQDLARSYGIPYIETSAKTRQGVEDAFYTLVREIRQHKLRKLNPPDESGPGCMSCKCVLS
H-Ras G12V, sequence (P01112 whole entry G12V): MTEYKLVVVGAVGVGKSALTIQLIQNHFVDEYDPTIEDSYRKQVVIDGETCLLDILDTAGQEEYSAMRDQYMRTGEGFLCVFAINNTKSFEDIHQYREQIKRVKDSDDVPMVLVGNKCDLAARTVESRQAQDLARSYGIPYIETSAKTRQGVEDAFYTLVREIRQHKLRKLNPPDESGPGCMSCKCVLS
RhoA, sequence (P61586 whole entry): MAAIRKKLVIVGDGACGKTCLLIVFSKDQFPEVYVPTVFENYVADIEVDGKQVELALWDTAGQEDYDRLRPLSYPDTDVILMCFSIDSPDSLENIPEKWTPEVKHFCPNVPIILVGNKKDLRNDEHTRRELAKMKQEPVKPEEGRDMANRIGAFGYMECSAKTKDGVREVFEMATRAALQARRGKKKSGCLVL
Rab7, sequence (P18067 2-207 limits assumed): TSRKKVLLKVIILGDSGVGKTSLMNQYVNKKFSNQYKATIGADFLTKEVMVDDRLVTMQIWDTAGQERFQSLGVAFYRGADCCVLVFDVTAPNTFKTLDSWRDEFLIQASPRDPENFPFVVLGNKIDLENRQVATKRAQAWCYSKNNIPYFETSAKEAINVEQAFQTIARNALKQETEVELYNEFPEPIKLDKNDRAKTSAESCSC

| SMILES | EC50 (Rac1) | EC50 (Rab7) | Solubility, Dose Response-buffer [1, 5] | solubility [1, 6] | Solubility, EGFR degradation assay medium ([1]; DMEM/F-12) | solubility [1, 7] | Solubility, LDV-FITC assay buffer ([1]; RPMI 1640 + 10% HI-FBS) | solubility [1, 8] | EC50 (H-Ras) | EC50 (Rac1 Q61L) | EC50 (Cdc42) | EC50 (Cdc42 Q61L) | EC50 (H-Ras G12V) | EC50 (RhoA) | inhibitory activity on BODIPY-FL GTP binding across all GTPases tested (in words) [2] | integrin activation [3] | loss in potency across all the GTPases ([2]; versus compound 1) | integrin VLA-4 activation (LDV-FITC binding after fMLFF) [4] |
| --- | --- | --- | --- | --- | --- | --- | --- | --- | --- | --- | --- | --- | --- | --- | --- | --- | --- | --- |
| CC1(C)Cc2c(sc(NC(=S)NC(=O)c3ccccc3Br)c2C(=O)O)CO1 [Compound 10] | 0.6 ± 0.8 µM | 0.43 ± 0.68 µM | > 93 µg/mL | > 198 µM | > 93 µg/mL | > 198 µM | > 93 µg/mL | > 198 µM | 0.62 ± 1 µM | 0.42 ± 0.65 µM | 46.8 ± 66 µM | 14.8 ± 20.8 µM | 0.43 ± 0.68 µM | 0.48 ± 0.74 µM |  |  |  |  |
| COC(=O)c1c(NC(=S)NC(=O)c2ccccc2)sc2c1CC(C)(C)OC2 [Compound 2] |  | > 1000 µM |  |  |  |  |  |  | > 1000 µM |  | > 1000 µM | > 1000 µM | > 1000 µM |  | loss of activity |  |  |  |
| CC1(C)Cc2c(sc(NC(=O)Cc3ccccc3)c2C(=O)O)CO1 [Compound 4] |  | > 1000 µM |  |  |  |  |  |  | > 1000 µM |  | > 1000 µM | > 1000 µM | > 1000 µM |  | inactive |  |  |  |
| COc1cccc(C(=O)NC(=S)Nc2sc3c(c2C(=O)O)CC(C)(C)OC3)c1 [Compound 7] | 0.19 ± 0.06 µM | 0.15 ± 0.13 µM | > 29.7 µg/mL | > 70.6 µM | 54.5 µg/mL (≈ 130 µM) | 129.6 µM (≈ 54.5 µg/mL) | > 83 µg/mL | > 197.4 µM | 0.13 ± 0.13 µM | 0.22 ± 0.14 µM | 0.58 ± 0.83 µM | 0.5 ± 0.71 µM | 0.12 ± 0.12 µM | 0.2 ± 0.13 µM |  |  |  |  |
| COc1ccc(C2CC(c3ccccc3)=NN2c2ccc(S(N)(=O)=O)cc2)cc1 (stereo not shown) [CID2950007] |  |  |  |  |  |  |  |  |  |  |  |  |  |  |  | decrease the integrin activation in a dose-dependent fashion |  |  |
| CC1(C)Cc2c(sc(NC(=S)Nc3ccccc3)c2C(=O)O)CO1 [Compound 5] |  |  |  |  |  |  |  |  |  |  |  |  |  |  | inactive |  |  |  |
| CC1(C)Cc2c(sc(NC(=O)NC(=O)c3ccccc3)c2C(=O)O)CO1 [Compound 6] | 0.35 ± 0.05 µM | 0.31 ± 0.09 µM |  |  |  |  |  |  | 0.44 ± 0.41 µM | 0.4 ± 0.02 µM | 17 µM | 0.47 µM | 0.49 ± 0.48 µM | 0.33 ± 0.03 µM |  |  | more than 2 fold |  |
| O=C(NC(=S)Nc1sc2c(c1C(=O)O)CCOC2)c1ccccc1 [Compound 3] | 0.18 ± 0.13 µM |  |  |  |  |  |  |  | 0.17 ± 0.094 µM | 0.23 ± 0.22 µM | 0.11 ± 0.064 µM | 0.13 ± 0.078 µM | 0.12 ± 0.12 µM | 0.23 ± 0.21 µM | did not cause a significant change in potency |  |  | dose-dependently blocked integrin activation |
| CC1(C)Cc2c(sc(NC(=S)NC(=O)c3ccc(F)cc3)c2C(=O)O)CO1 [Compound 9] | 0.15 µM | 0.41 ± 0.19 µM | > 69.1 µg/mL |  | 67.6 µg/mL (≈ 165 µM) | 165.5 µM (≈ 67.6 µg/mL) | 115.3 µg/mL | 282.3 µM | 0.33 ± 0.22 µM | 0.13 µM | 1 ± 1.2 µM | 0.88 ± 0.47 µM | 0.091 µM | 0.11 µM |  |  |  |  |
